{"source": "paper PMC10761933", "about": "“Acquired and intrinsic resistance to vemurafenib in BRAF^V600E ‐driven melanoma brain metastases” (FEBS Open Bio, 2023)", "tested_on": "intracranial A375 tumors", "assay": "Efficacy against intracranial A375 melanoma tumors (BLI, survival)", "assay_type": "in vivo, mice", "method": "For subcutaneous xenograft models, 30 μL of cell suspension containing 3 × 10^6 A375 cells was injected into both flanks of FVB WT and Abcb1a/b;Abcg2 ^ −/− nude mice. For xenograft MBM models, stereotactic intracranial injections (A375 and Mel57) or intracarotid injections (K1735) of melanoma cells were performed as described previously. For intracranial injections, FVB nude mice were injected intracranially with 2 μL of A375 or Mel57 cell suspension containing 1 × 10^5 cells 2 mm lateral, 1 mm anterior, and 3 mm ventral from the bregma. For intracarotid injections, 1 × 10^5 cells in 100 μL HBSS were injected in the left common carotid artery of C3H/HeN mice. Tumor growth was measured by bioluminescence imaging (BLI) for intracranial tumors and by caliper for subcutaneous tumors. The volume of subcutaneous tumors was calculated in mm^3 using the modified ellipsoid formula (volume = 0.5 × length × width^2). Bioluminescence images were acquired following i.p. D‐luciferin (150 mg·kg^−1; Promega) using an IVIS 200 or IVIS Spectrum system with LIVING IMAGE software v4.5 (both PerkinElmer, Waltham, MA, USA). Animals were stratified into treatment groups to achieve a similar mean bioluminescence reading within each cohort. The bioluminescence intensity of each individual animal on the day of the start of treatment (Day 0) was arbitrarily set at 100%. All subsequent measurements were recorded relative to this first measurement and converted to their log values. Mean ± standard error (SE) values were calculated and plotted in graphs.\nFor the subcutaneous tumor model, therapy was initiated 2 weeks after implantation, when the tumor volume exceeded 40 mm^3. FVB WT and Abcb1a/b;Abcg2 ^ −/− nude mice (n = 8) received 25 and 10 mg·kg^−1 of vemurafenib daily, respectively. Control mice (n = 8) received vehicle. Tumor development was assessed by caliper twice a week. For the intracranial tumor model, treatment was started about 2 weeks after intracranial injection of tumor cells, when full‐blown tumors were present in all animals. WT and Abcb1a/b;Abcg2 ^ −/− nude mice received vehicle, 25 mg·kg^−1 vemurafenib, 10 mg·kg^−1 vemurafenib plus 100 mg·kg^−1 elacridar, or 10 mg·kg^−1 vemurafenib once daily for 10 consecutive days or in a 5 days on/2 days off/5 days on schedule, as indicated in the relevant figure panels. Tumor growth was monitored by BLI every 4 or 5 days. Mice were weighed daily weighed examined for abnormalities. The mice were humanely sacrificed based on BLI results or when weight loss exceeded 20% of the initial body weight."}
{"smiles": "CCCS(=O)(=O)Nc1ccc(F)c(C(=O)c2c[nH]c3ncc(-c4ccc(Cl)cc4)cc23)c1F", "note": "[vemurafenib]", "values": [{"measurement": "survival", "setting": "Abcb1a/b;Abcg2−/− mice, 10 mg·kg^−1 q.d. × 10d", "result": "not significantly extended"}, {"measurement": "tumor growth of intracranial A375 tumors", "setting": "Abcb1a/b;Abcg2−/− mice, 10 mg·kg^−1 q.d. × 10d, first 3 days of treatment, regrowth under therapy afterwards", "result": "induced tumor regression"}, {"measurement": "tumor growth of intracranial A375 tumors", "setting": "Abcb1a/b;Abcg2−/− mice, two cycles of 5 days of 25 mg·kg^−1 daily oral", "result": "induced regression and subsequent tumor stasis"}, {"measurement": "survival", "setting": "Abcb1a/b;Abcg2−/− mice, two cycles of 5 days of 25 mg·kg^−1 daily oral, vs vehicle", "result": "a survival difference was already established"}, {"measurement": "antitumor efficacy against intracranial A375 tumors with pharmacological P‐gp/BCRP inhibition vs Abcb1a/b;Abcg2−/− mice at same dose", "setting": "WT mice, 10 mg·kg^−1 vemurafenib + 100 mg·kg^−1 elacridar", "result": "less efficacious"}, {"measurement": "tumor growth of intracranial A375 tumors", "setting": "WT mice, 25 mg·kg^−1 q.d. × 10d", "result": "only reduced A375 growth speed"}]}
